# From article PMC11432087, “Hydrogen Sulfide-Releasing Carbonic Anhydrase Inhibitors Effectively Suppress Cancer Cell Growth” (International Journal of Molecular Sciences, 2024)
# Where two headings read alike, the source gives them in different places.
# How the values were obtained:
# hCA I = settings: stopped-flow CO2 hydrase assay, mean of three assays; cited from earlier work
# hCA II = settings: stopped-flow CO2 hydrase assay, mean of three assays; cited from earlier work
# hCA IV [1] = settings: stopped-flow CO2 hydrase assay, mean of three assays; cited from earlier work
# hCA IX [2] = settings: stopped-flow CO2 hydrase assay, mean of three assays; cited from earlier work
# hCA XII = settings: stopped-flow CO2 hydrase assay, mean of three assays; cited from earlier work
# hCA IV [3] = assay: Stopped-flow CO2 hydrase inhibition assay, hCA IV; type: biochemical, human; settings: ratio of KIs
# Protocol: (§1) An Applied Photophysics stopped-flow instrument (Applied Photophysics Ltd, Leatherhead, UK) was used for assaying the CA-catalyzed CO2 hydration activity. Phenol red (at a concentration of 0.2 mM) was used as an indicator, working at the absorbance maximum of 557 nm, with 20 mM Hepes (pH 7.5) as a buffer and 20 mM Na2SO4 for maintaining constant the ionic strength, following the initial rates of the CA-catalyzed CO2 hydration reaction for a period of 10−100 s. The CO2 concentrations ranged from 1.7 to 17 mM for the determination of the kinetic parameters and inhibition constants. For each inhibitor, at least six traces of the initial 5−10% of the reaction were used for determining the initial velocity. The uncatalyzed rates were determined in the same manner and subtracted from the total observed rates. Stock solutions of inhibitor (0.1 mM) were prepared in distilled−deionized water and dilutions up to 0.01 nM were made thereafter with the assay buffer. Inhibitor and enzyme solutions were preincubated together for 15 min at room temperature before the assay to allow for the formation of the E−I complex. The inhibition constants were obtained by nonlinear least-squares methods using Prism 7 (GraphPad Software, La Jolla, CA, USA) and the Cheng−Prusoff equation and represent the mean of at least three different determinations. The enzyme concentrations were in the range of 3–11 nM. All hCA isoforms were recombinant ones obtained in-house.
# hCA IX [4] = assay: Stopped-flow CO2 hydrase inhibition assay, hCA IX; type: biochemical, human; settings: ratio of KIs
# Protocol: as §1
# MDA-MB-231 = assay: MTT antiproliferative assay, MDA-MB-231; type: cell-based; settings: Homo sapiens, normoxic conditions, 72 h
# Protocol: (§2) These cell lines were cultured as monolayers in Dulbecco’s Modified Eagle’s Medium (DMEM) supplemented with 10% FBS, 2 mM l-glutamine, 100 U/mL penicillin, and 100 µg/mL streptomycin sulfate. […] The cells were sub-cultured using trypsin/EDTA solution, counted with a hemocytometer, and plated on 96-well plates (5000 cells/well), allowing them to form a semi-confluent monolayer overnight. […] DMSO (100 µL/well) was then added to dissolve the formazan crystals with shaking for 10 min, after which the absorb absorbance was read at 590 nm against no-cell blanks using a FLuo Star Optima microplate reader (BMG technologies, Ortenberg, Germany). Cell proliferation was calculated by comparing the OD values of the DMSO control wells with those of the samples, represented as % proliferation relative to the control.
# HCT-116 [5] = assay: MTT antiproliferative assay, HCT-116 (normoxia and CoCl2-induced hypoxia); type: cell-based, human; settings: for IC50: Homo sapiens, MTT, 72 h
# Protocol: as §2
# A549 [6] = assay: MTT antiproliferative assay, A549; type: cell-based; settings: Homo sapiens, normoxic conditions, 72 h
# Protocol: The human triple-negative breast cancer cell line (MDA-MB-231), colon cancer cell line (HCT-116), and lung cancer cell line (A549) used in this study were obtained from the American Type Culture Collection (ATCC). These cell lines were cultured as monolayers in Dulbecco’s Modified Eagle’s Medium (DMEM) supplemented with 10% FBS, 2 mM l-glutamine, 100 U/mL penicillin, and 100 µg/mL streptomycin sulfate. […] The cells were sub-cultured using trypsin/EDTA solution, counted with a hemocytometer, and plated on 96-well plates (5000 cells/well), allowing them to form a semi-confluent monolayer overnight. […]. DMSO (100 µL/well) was then added to dissolve the formazan crystals with shaking for 10 min, after which the absorb absorbance was read at 590 nm against no-cell blanks using a FLuo Star Optima microplate reader (BMG technologies, Ortenberg, Germany). Cell proliferation was calculated by comparing the OD values of the DMSO control wells with those of the samples, represented as % proliferation relative to the control.
# HCT-116 [7] = assay: Cell cycle analysis by DNA flow cytometry, HCT-116; type: cell-based, human; settings: HCT-116, 24 h at IC50 concentration
# Protocol: (§3) Following treatment, cells were washed twice with ice-cold phosphate-buffered saline (PBS). Subsequently, the treated cells were harvested through centrifugation, fixed in ice-cold 70% (v/v) ethanol, washed with PBS, re-suspended in 100 μg/mL RNase, stained with 40 μg/mL propidium iodide (PI), and subjected to flow cytometry analysis using FACS Calibur (Becton Dickinson, Franklin Lakes, NJ, USA). The cell cycle distributions were calculated using CellQuest software 5.1 (Becton Dickinson).
# A549 [8] = assay: Cell cycle analysis by DNA flow cytometry, A549; type: cell-based, human; settings: A549, 24 h at IC50 concentration
# Protocol: as §3
# HCT-116 [9] = assay: Annexin V-FITC/PI dual staining apoptosis assay, HCT-116; type: cell-based, human
# Protocol: (§4) Phosphatidylserine externalization was evaluated using the Annexin V-FITC/PI apoptosis detection kit (BD Biosciences, USA), following the manufacturer’s guidelines. […] Subsequently, the cells were re-suspended in 100 μL of binding buffer with the addition of 1 μL of FITC-Annexin V, followed by a 30-min incubation at 4 °C. After rinsing in binding buffer, the cells were resuspended in 150 μL of binding buffer with the addition of 1 μL of DAPI (1 μg/μL in PBS). Flow cytometry analysis was performed using the BD FACS Canto II flow cytometer and the results were interpreted with FlowJo7.6.4 software (Tree Star, Ashland, USA).
# A549 [10] = assay: Annexin V-FITC/PI dual staining apoptosis assay, A549; type: cell-based, human
# Protocol: as §4
# [11] = compound 150 µM, rat liver homogenate, 37 °C; cited from earlier work
# [12] = HCT-116, treated at IC50 concentration
# [13] = A549, treated at IC50 concentration
smiles,measurement,setting,value
COc1ccc(CN(CCc2ccc(S(N)(=O)=O)cc2)C(=O)c2ccc(-c3cssc3=S)cc2)cc1 [Compound 27],Ki,hCA I,2.21 µM
same,Ki,hCA II,0.589 µM
same,Ki,hCA IV [1],1.59 µM
same,Ki,hCA IX [2],0.0503 µM
same,Ki,hCA XII,0.0764 µM
COc1ccc(CN(CCc2ccc(S(N)(=O)=O)cc2)C(=O)c2ccc(-c3cssc3=S)cc2)cc1OC [Compound 28],Ki,hCA I,0.89 µM
same,Ki,hCA II,0.218 µM
same,Ki,hCA IV [1],0.293 µM
same,Ki,hCA IX [2],0.0186 µM
same,Ki,hCA XII,0.0089 µM
NS(=O)(=O)c1ccc(CCN(Cc2cccc3ccccc23)C(=O)c2ccc(-c3cssc3=S)cc2)cc1 [Compound 30],hCA II/hCA IV selectivity ratio,hCA IV [3],18.3
same,hCA II/hCA IX selectivity ratio,hCA IX [4],286
same,IC50,MDA-MB-231,9.59 ± 0.31 µM
same,IC50 Normoxia / IC50 Hypoxia,HCT-116 [5]; HCT-116,2.5
same,Increase in cytotoxicity under hypoxia compared to normoxia,"HCT-116 [5]; HCT-116, chemically induced hypoxia",2 fold
same,Increase in activity concerning Staurosporine,"HCT-116 [5]; HCT-116, hypoxic conditions",10 fold
same,Increase in activity concerning Staurosporine,"HCT-116 [5]; HCT-116, normoxic conditions",5 fold
same,IC50,"HCT-116 [5]; HCT-116, chemically induced hypoxia with CoCl2·6H2O, read-out: IC50 HCT-116 (Hypoxia)",0.93 ± 0.02 µM
same,IC50,"HCT-116 [5]; HCT-116, normoxic conditions, read-out: IC50 HCT-116 (Normoxia)",2.3 ± 0.14 µM
same,IC50,A549 [6],1.78 ± 0.04 µM
same,%G0-G1,HCT-116 [7],28.22%
same,%G2/M,HCT-116 [7],31.39%
same,%S,HCT-116 [7],18.4%
same,%Sub-G1,HCT-116 [7],21.99%
same,%G0-G1,A549 [8],22.93%
same,%G2/M,A549 [8],34.96%
same,%S,A549 [8],20.77%
same,%Sub-G1,A549 [8],21.34%
same,Fold increase in overall apoptosis compared to untreated control,HCT-116 [9]; HCT-116,32.9 fold
same,Early Apoptosis (Lower Right %),HCT-116 [9]; [12],10.23%
same,Late Apoptosis (Upper Right %),HCT-116 [9]; [12],15.49%
same,Total apoptosis,HCT-116 [9]; [12],25.72%
same,Fold increase in overall apoptosis compared to untreated control,A549 [10]; A549,19.9 fold
same,Early Apoptosis (Lower Right %),A549 [10]; [13],5.36%
same,Late Apoptosis (Upper Right %),A549 [10]; [13],18.59%
same,Total apoptosis,A549 [10]; [13],23.95%
same,Ki,hCA I,> 10 µM
same,Ki,hCA II,4.46 µM
same,Ki,hCA IV [1],0.244 µM
same,Ki,hCA XII,0.007 µM
same,H2S release half-life t/2,[11],5.0 min
NS(=O)(=O)c1ccc(CCN(Cc2csc3ccccc23)C(=O)c2ccc(-c3cssc3=S)cc2)cc1 [Compound 31],Ki,hCA I,> 10 µM
same,Ki,hCA II,2.48 µM
same,Ki,hCA IX [2],0.0024 µM
same,Ki,hCA XII,0.008 µM
NS(=O)(=O)c1ccc(CCN(CCc2ccccc2)C(=O)c2ccc(-c3cssc3=S)cc2)cc1 [Compound 32],Ki,hCA I,4.39 µM
same,Ki,hCA II,0.661 µM
same,Ki,hCA IV [1],0.243 µM
same,Ki,hCA IX [2],0.126 µM
same,Ki,hCA XII,0.0096 µM
N#CCCN(CCc1ccc(S(N)(=O)=O)cc1)C(=O)c1ccc(-c2cssc2=S)cc1 [Compound 33],Ki,hCA I,0.429 µM
same,Ki,hCA II,0.0604 µM
same,Ki,hCA IV [1],0.523 µM
same,Ki,hCA IX [2],0.0287 µM
same,Ki,hCA XII,0.0091 µM
"CN[C@@H]1C[C@H]2O[C@@](C)([C@@H]1OC)n1c3ccccc3c3c4c(c5c6ccccc6n2c5c31)C(=O)NC4 [Staurosporine, reference compound]",IC50,A549 [6],5.11 ± 0.19 µM
